Assay results: patent publication US20080031866A1, “METHOD FOR MODULATING THE PHARMACOKINETICS AND METABOLISM OF A THERAPEUTIC AGENT” (priority 2006, published 2008)

Legend:
[1] = Intraduodenal dosing with and without β-glucuronidase, catheterized rat; format: in vivo; details: 10 mg/kg, rats N=6; for AUC / Cmax / concentration at 0 h / concentration at 0.25 h / concentration at 0.5 h / concentration at 1 h / concentration at 2 h / concentration at 3 h / concentration at 4 h / concentration at 5 h / concentration at 6 h: male, Sprague Dawley, rat, plasma; for AUC: read-out: AUC average ± standard deviation 0 to 6 hours; for Cmax: read-out: Cmax average ± standard deviation; for concentration at 0 h / concentration at 0.25 h / concentration at 0.5 h / concentration at 1 h / concentration at 2 h / concentration at 3 h / concentration at 4 h / concentration at 5 h / concentration at 6 h: other: intraduodenal
Method: A catheterized rat model was used in which the agent alone or agent and β-glucuronidase enzyme was administered intraduodenally or intracolonically. The intraduodenal and intracolonic dosing was intended to prevent the potential for loss of enzymatic activity when orally dosing the β-glucuronidase (e.g. by degradation in the stomach). […]
For the oral gavage dosing, Compound 1 was prepared in neat PEG-400. For the intraduodenal and intracolonic dosing solutions, Compound 1 was added to neat Tween 80, the mixture was sonicated for thirty minutes at 45° C. until Compound 1 was completely dissolved and then deionized (DI) water was added to form a solution consisting of 20% Tween 80 and 80% DI water by weight.
For the oral enzyme solutions, β-glucuronidase was added to the final formulation at a concentration of 57,600 units/ml.
For the intraduodenal and intracolonic dosing, male Sprague Dawley rats weighing 300-400 g were purchased from Charles River Labs. All rat experiments were conducted under approved animal protocols. The rats were catheterized at Charles River Labs and had one or more of the following chronic catheters for dosing and sampling: jugular/carotid, duodenal, and colonic. Rats were limited to only one GI catheter and one vascular catheter. For IV dosing, rats were purchased with jugular and carotid catheters for dosing in the jugular catheter and blood sampling through the carotid catheter. For intraduodenal/intracolonic dosing, rats had one of the GI catheters for dosing and a carotid catheter for blood sampling.
The surgeries were done two weeks prior to start of testing. Rats were fed 4 hours post dose administration. All rats were dosed without anesthesia and sacrificed at the end of the study.
(§1) A quantitative method for determining the amount of (6,7-dimethoxy-2,4-dihydro-indeno[1,2-c]pyrazol-3-yl)-(3-fluoro-phenyl)-amine Compound 1 and its major metabolites, glucuronide A (Cpd 1-GluA) and glucuronide B (Cpd 1-GluB) (see Scheme A) in rat plasma was developed using phenacetin as an internal standard. [drawing 1]
(§2) The two glucuronide conjugates were prepared and purified to permit accurate quantification of the levels of intact parent Compound 1 versus Cpd 1-GluA and Cpd 1-GluB. Each standard curve for Compound 1, Cpd 1-GluA, and Cpd 1-GluB generated from rat plasma included ten concentration levels. […] The quantitative procedure for each sample included: sample preparation, HPLC separation and mass spectrometry detection.
(§3) The rat plasma was prepared using protein precipitation techniques. Reference standards and quality control samples in rat plasma for Compound 1 were transferred to a 96 deep-well plate. The precipitation solution contained 100 ng/ml of internal standard in acetonitrile. 300 μl of precipitation solution were added to 100 μl of each standard, quality control and plasma sample. Samples were vortexed for 10 mins, then centrifuged at 4500 RPM for 10 mins. 10 μl of each sample were injected for LC/MS/MS analysis.
(§4) The HPLC column chosen for the bioanalysis was purchased from Thermo Electron (Hypersil BetaBasic C18, 5 cm×2.1 mm). The eluting solvents were composed of Solvent A: 0.1% formic acid in H2O and Solvent B: 0.1% formic acid in acetonitrile. A step gradient was used and flow rate was 300 μl/min. The total run time was 3.2 mins. Solvent B was increased from 35% at 0 min to 75% at 2.1 mins and decreased back to 35% at 2.2 mins. The retention times for Compound 1, phenacetin, Cpd 1-GluA and Cpd 1-GluB were 1.1 min, 0.9 min, 1.3 min, and 1.6 min, respectively.
API3000 with a Turbo Ionspray interface from Applied Biosystems was used for the detection of Compound 1, the internal standard and major metabolites. Electrospray ionization was performed in the positive ion mode heated nebulizer with a temperature of 300° C. LC/MS/MS chromatograms were acquired in MRM (multiple reaction mode). […]

[2] = IV pharmacokinetics of Compound 1 and its glucuronides in rats; format: in vivo, rat; details: Sprague Dawley, rat, plasma, Compound 1 2 mg/kg IV; for AUC / Cmax / concentration at 0 h / concentration at 0.08 h / concentration at 0.33 h / concentration at 1 h / concentration at 2 h / concentration at 4 h / concentration at 8 h / concentration at 24 h: male rats N=4; for AUC: read-out: AUC average ± standard deviation; for Cmax: read-out: Cmax average ± standard deviation; for concentration at 0 h / concentration at 0.08 h / concentration at 0.33 h / concentration at 1 h / concentration at 2 h / concentration at 4 h / concentration at 8 h / concentration at 24 h: retro orbital sinus; for Tmax: male rats
Method: Two separate IV studies were carried out using two separate lots of animals. IV-A was run on the same lot of animals as the oral gavage study and IV-B was run on the same lot of animals as the intraduodenal and intra-colonic studies.
For the IV dosing solutions (IV), Compound 1 was prepared by addition to DI water containing 20% hydroxypropyl β-cyclodextran by weight.
For the IV and oral gavage dosing (sampling at jugular and portal vein), young adult male Sprague Dawley rats weighing 250-400 g were purchased from Hilltop Lab Animals Inc. All rat experiments were conducted under approved animal protocols. The rats for the oral gavage dosing were catheterized at Hilltop Lab Animals Inc, had two chronic catheters for sampling: jugular and portal, were housed in cages of Culex™ Automated Blood Sampler (ABS) and blood samples were collected simultaneously via both cannula and were controlled by the Culex™ ABS control software.
as §1, §2, §3, §4
API3000 with a Turbo Ionspray interface from Applied Biosystems was used for the detection of Compound 1, the internal standard and major metabolites. Electrospray ionization was performed in the positive ion mode heated nebulizer with a temperature of 300° C. LC/MS/MS chromatograms were acquired in MRM (multiple reaction mode). The MRM transitions for Compound 1, the internal standard, Cpd 1-GluA and Cpd 1-GluB were from 326.3 to 190.6, 181.1 to 110.3, 502.2 to 368.3 and 502.2 to 326.4, respectively.
Pharmacokinetic analysis of the plasma concentration data was performed to determine the maximum plasma concentration (Cmax) for the oral dose, and the concentration at zero time (C0; Compound 1 only) by the extrapolation of drug concentrations back to the time of i.v. dosing, the time to maximum plasma concentration (Tmax) following the oral dose, area under the plasma concentration vs. time curve (AUC), terminal half-life (t1/2), plasma clearance (CL/F; Compound 1 only), and volume of distribution at steady state (Vdss; Compound 1 only) for the i.v. dose, using the WinNonlin (Version 3.1, Pharsight, Palo Alto, Calif.) validated computer program.

[3] = Compound 1 10 mg/kg intraduodenal with β-glucuronidase
[4] = Compound 1 10 mg/kg intraduodenal without enzyme

| SMILES | AUC [1, 3] [ng·h/mL] | Cmax [1, 3] [ng/mL] | AUC [1, 4] [ng·h/mL] | Cmax [1, 4] [ng/mL] | concentration at 0 h [1, 3] [ng/mL] | concentration at 0.25 h [1, 3] [ng/mL] | concentration at 0.5 h [1, 3] [ng/mL] | concentration at 1 h [1, 3] [ng/mL] | concentration at 2 h [1, 3] [ng/mL] | concentration at 3 h [1, 3] [ng/mL] | concentration at 4 h [1, 3] [ng/mL] | concentration at 5 h [1, 3] [ng/mL] | concentration at 6 h [1, 3] [ng/mL] | concentration at 0 h [1, 4] [ng/mL] | concentration at 0.25 h [1, 4] [ng/mL] | concentration at 0.5 h [1, 4] [ng/mL] | concentration at 1 h [1, 4] [ng/mL] | concentration at 2 h [1, 4] [ng/mL] | concentration at 3 h [1, 4] [ng/mL] | concentration at 4 h [1, 4] [ng/mL] | also measured |
| --- | --- | --- | --- | --- | --- | --- | --- | --- | --- | --- | --- | --- | --- | --- | --- | --- | --- | --- | --- | --- | --- |
| COc1cc2c(cc1OC)-c1n[nH]c(N(c3cccc(F)c3)[C@H]3O[C@@H](C(=O)O)[C@H](O)[C@@H](O)[C@@H]3O)c1C2 [Cpd 1-GluA] | 8940 ± 2140 | 6450 | 1220 ± 371 | 717 ± 171 | 0 | 6450 | 4820 | 3860 | 812 ± 426 | 462 ± 208 | 480 ± 107 | 420 ± 74.1 | 462 ± 113 | 0 | 666 ± 198 | 687 ± 178 | 463 ± 164 | 118 ± 36.3 | 66.6 ± 42 | 88.2 ± 53.9 | concentration at 5 h [1, 4]: 83.1 ± 23.2 ng/mL; concentration at 6 h [1, 4]: 90.2 ± 28.1 ng/mL; AUC average ± standard deviation 0 to 6 hours [1, 3]: 8,723.2 ± 2,132.6 ng · hr/ml; AUC average ± standard deviation 0 to 6 hours [1, 4]: 1,172.7 ± 361.2 ng · hr/ml; AUC [2]: 8210 ng·h/mL; Cmax [2]: 2970 ng/mL; concentration at 0 h [2]: 0 ng/mL; concentration at 0.08 h [2]: 2440 ng/mL; concentration at 0.33 h [2]: 2970 ng/mL; concentration at 1 h [2]: 1670 ng/mL; concentration at 2 h [2]: 492 ng/mL; concentration at 4 h [2]: 68.6 ng/mL; concentration at 8 h [2]: 369 ng/mL; concentration at 24 h [2]: 18.6 ng/mL; Tmax [2]: 18 min |
| COc1cc2c(cc1OC)-c1nn(C3OC(C(=O)O)C(O)C(O)C3O)c(Nc3cccc(F)c3)c1C2 (stereo in doubt) [Cpd 1-GluB] | 1770 | 755 ± 509 | 128 ± 55.3 | 75.7 ± 27.4 | 0 | 508 ± 342 | 503 ± 363 | 676 ± 586 | 275 ± 260 | 271 ± 181 | 194 ± 165 | 146 ± 84.4 | 119 ± 108 | 0 | 70.2 ± 29.3 | 72.4 ± 28.2 | 51.2 ± 24.9 | 13.5 ± 5.5 | 7.1 ± 5 | 9.6 ± 6.7 | concentration at 5 h [1, 4]: 9.2 ± 4.1 ng/mL; concentration at 6 h [1, 4]: 10.4 ± 4 ng/mL; AUC [2]: 103 ± 47 ng·h/mL; Cmax [2]: 28 ± 3 ng/mL; concentration at 0 h [2]: 0 ng/mL; concentration at 0.08 h [2]: 21.2 ng/mL; concentration at 0.33 h [2]: 28.4 ng/mL; concentration at 1 h [2]: 17.8 ng/mL; concentration at 2 h [2]: 5.5 ng/mL; concentration at 4 h [2]: 0 ng/mL; concentration at 8 h [2]: 0 ng/mL; concentration at 24 h [2]: 0 ng/mL; Tmax [2]: 18 min |
